The record followed here is PubChem BioAssay AID330 (DTP/NCI, 2004).

The test relates to P388 leukemia ip, CD2F1 mice, survival T/C. Kind of test: NCI In Vivo Anticancer Drug Screen. Data for tumor model P388 Leukemia (intraperitoneal) in CD2F1 (CDF1) mice. The note with it: endpoint: median survival time, higher = longer survival. Put shortly:
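Mice carrying the transplanted tumor received test compound or vehicle. Survival was recorded in each group, and the value is the treated-group measurement divided by that of the vehicle-treated control group.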

[1] abbreviates: dose: 50.0 mg/kg/injection, schedule: Q01DX005 (ip), vehicle: Klucel (hydroxypropylcellulose) (HPC).
Setting [2] is: dose: 100.0 mg/kg/injection, schedule: Q01DX005 (ip), vehicle: Klucel (hydroxypropylcellulose) (HPC).
The mark [3] stands for this setting: dose: 50.0 mg/kg/injection, schedule: Q01DX009 (ip), vehicle: saline.
[4] abbreviates: dose: 100.0 mg/kg/injection, schedule: Q01DX009 (ip), vehicle: saline.
The mark [5] stands for this setting: dose: 200.0 mg/kg/injection, schedule: Q01DX009 (ip), vehicle: saline.
[6] abbreviates: dose: 60.0 mg/kg/injection, schedule: Q01DX005 (ip), vehicle: Klucel (hydroxypropylcellulose) (HPC).
Setting [7] is: dose: 120.0 mg/kg/injection, schedule: Q01DX005 (ip), vehicle: Klucel (hydroxypropylcellulose) (HPC).
Setting [8] is: dose: 240.0 mg/kg/injection, schedule: Q01DX005 (ip), vehicle: Klucel (hydroxypropylcellulose) (HPC).
[9] abbreviates: dose: 200.0 mg/kg/injection, schedule: Q01DX005 (ip), vehicle: Klucel (hydroxypropylcellulose) (HPC).
[10] abbreviates: dose: 50.0 mg/kg/injection, schedule: Q01DX009 (ip), vehicle: saline with Tween-80.
The mark [11] stands for this setting: dose: 100.0 mg/kg/injection, schedule: Q01DX009 (ip), vehicle: saline with Tween-80.
The mark [12] stands for this setting: dose: 200.0 mg/kg/injection, schedule: Q01DX009 (ip), vehicle: saline with Tween-80.

Structures are written as SMILES. Values joined by “and” are separate entries in the source; they are usually repeats but may differ in a detail not shown here. Equal entries are not always repeated. Toxic doses and inconclusive results are not listed.

Take `COC12C(COC(N)=O)C3=C(C(=O)C(C)=C(N4CC4)C3=O)N1CC1NC12` (stereo not drawn): the T/C was 154 % of control (dose: 0.13 mg/kg/injection, schedule: Q04DX003 (ip), vehicle: saline sonified); 163 % of control (dose: 0.25 mg/kg/injection, schedule: Q04DX003 (ip), vehicle: saline sonified); 91 % of control (dose: 0.33 mg/kg/injection, schedule: Q04DX003 (ip), vehicle: saline with Tween-80); 181 % of control (dose: 0.5 mg/kg/injection, schedule: Q04DX003 (ip), vehicle: saline sonified); 87 % of control (dose: 0.75 mg/kg/injection, schedule: Q04DX003 (ip), vehicle: saline with Tween-80).

On to `CC(C)CCCC(C)C1CCC2C3CC=C4CC(OC(=O)C56C=CC(=O)C5C5C=CC6CC5)CCC4(C)C3CCC12C` (stereo not drawn), for which the T/C (dose: 1.56 mg/kg/injection, schedule: Q01DX005 (ip), vehicle: distilled water + Tween-80) is 100 % of control; the T/C (dose: 3.12 mg/kg/injection, schedule: Q01DX005 (ip), vehicle: distilled water + Tween-80) is 90 % of control; the T/C (dose: 200.0 mg/kg/injection, schedule: Q01DX005 (ip), vehicle: distilled water + Tween-80) was 86 % of control.

With `CCN(c1ccccc1C(=O)O)S(=O)(=O)c1ccc(C)cc1`, the T/C reads like this: under setting [1], 104 % of control; under setting [2], 106 % of control.

In the case of `CC(NC(=O)OC(C)(C)C)C(=O)NC(C)C(=O)OCc1ccccc1` (stereo not drawn), the T/C by setting is: (dose: 50.0 mg/kg/injection, schedule: Q01DX005 (ip), vehicle: saline with Tween-80) 99 % of control; (dose: 100.0 mg/kg/injection, schedule: Q01DX005 (ip), vehicle: saline with Tween-80) 89 % of control and 105 % of control; (dose: 200.0 mg/kg/injection, schedule: Q01DX005 (ip), vehicle: saline with Tween-80) 92 % of control.

On to `CC(C)N(C(=S)/N=C1/SCS(=O)(=O)N1C)C(C)C`, for which the T/C runs as follows: (dose: 50.0 mg/kg/injection, schedule: Q04DX003 (ip), vehicle: saline with Tween-80) 101 % of control; (dose: 100.0 mg/kg/injection, schedule: Q04DX003 (ip), vehicle: saline with Tween-80) 104 % of control; (dose: 200.0 mg/kg/injection, schedule: Q04DX003 (ip), vehicle: saline with Tween-80) 104 % of control.

On to `C=CC(=O)NCC(=O)O`, for which the T/C was 100 % of control under setting [3], 103 % of control under setting [4] and 109 % of control under setting [5].

Regarding `CNC(C)(C(=O)O)C(=O)Nc1ccccc1` (stereo not drawn), the T/C is 112 % of control (dose: 100.0 mg/kg/injection, schedule: Q01DX001 (ip), vehicle: saline) and 123 % of control (dose: 200.0 mg/kg/injection, schedule: Q01DX001 (ip), vehicle: saline).

As to `O=c1c2cc(OCO)ccc2[nH]c2cc3c(=O)c4cc(OCO)ccc4[nH]c3cc12`, the T/C is 102 % of control under setting [3], 99 % of control under setting [4] and 93 % of control under setting [5].

For `NC(=O)c1ccc(NO)cc1`, the T/C by setting is: under setting [3], 106 % of control; under setting [4], 98 % of control; under setting [5], 94 % of control.

With `CC(O)CNC(=O)Nc1ccccc1` (stereo not drawn), the T/C by setting is: under setting [6], 97 % of control; under setting [7], 95 % of control; under setting [8], 88 % of control.

Take `CC(=O)O[C@@H]1C(=O)[C@]2(CO)C(C(OC(=O)c3ccccc3)C3(O)CC(O)C(C)=C1C3(C)C)[C@@]1(OC(C)=O)CO[C@H]1C[C@H]2O` (stereo partly drawn): the T/C is 108 % of control (dose: 0.26 mg/kg/injection, schedule: Q01DX009 (ip), vehicle: distilled water + alcohol); 106 % of control (dose: 0.53 mg/kg/injection, schedule: Q01DX009 (ip), vehicle: distilled water + alcohol); 106 % of control (dose: 1.07 mg/kg/injection, schedule: Q01DX009 (ip), vehicle: distilled water + alcohol); 105 % of control (dose: 2.15 mg/kg/injection, schedule: Q01DX009 (ip), vehicle: distilled water + alcohol); 108 % of control (dose: 4.3 mg/kg/injection, schedule: Q01DX009 (ip), vehicle: distilled water + alcohol).

With `COc1ccc2[nH]c3c(c(=O)n(C)c(=O)n3C)c2c1`, the T/C was 92 % of control under setting [1], 93 % of control under setting [2] and 92 % of control under setting [9].

As to `CCCCCCCC(=O)Nc1ccc(CC)cc1`, the T/C (dose: 100.0 mg/kg/injection, schedule: Q04DX003 (ip), vehicle: other) was 109 % of control; the T/C (dose: 200.0 mg/kg/injection, schedule: Q04DX003 (ip), vehicle: other) is 90 % of control; the T/C (dose: 400.0 mg/kg/injection, schedule: Q04DX003 (ip), vehicle: other) was 118 % of control.

In the case of `O=[N+]([O-])c1ccc(S(=O)(=O)c2ccc(Nc3ccnc4cc(Cl)ccc34)cc2)cc1`, the T/C runs as follows: under setting [1], 98 % of control; under setting [2], 91 % of control; under setting [9], 90 % of control.

Turning to `COc1ccc(OC)c(NC(=O)N2CCCC2)c1`, the T/C under setting [10] was 100 % of control, the T/C under setting [11] was 96 % of control and the T/C under setting [12] is 96 % of control.

For the molecule `CC(C)C1OCN2CCCCC12` (stereo not drawn), the T/C by setting is: (dose: 50.0 mg/kg/injection, schedule: Q01DX005 (ip), vehicle: saline) 105 % of control; (dose: 100.0 mg/kg/injection, schedule: Q01DX005 (ip), vehicle: saline) 108 % of control; (dose: 200.0 mg/kg/injection, schedule: Q01DX005 (ip), vehicle: saline) 116 % of control.

`CCOC1(C)C=CC(=NC(C)(C)C)C=C1` (stereo not drawn): the T/C runs as follows: (dose: 25.0 mg/kg/injection, schedule: Q01DX009 (ip), vehicle: saline with Tween-80) 97 % of control; under setting [10], 101 % of control; under setting [11], 101 % of control.

`CCOC(=O)c1c(NC(=S)NC)sc2c1CCCC2`: the T/C is, setting by setting: under setting [10], 106 % of control; under setting [11], 108 % of control; under setting [12], 91 % of control.

Turning to `COc1ccc(C(=O)Cc2nc3nnc(NC(=O)Nc4ccc(Cl)cc4)n3[nH]c2=O)cc1`, the T/C is, setting by setting: (dose: 60.0 mg/kg/injection, schedule: Q01DX005 (ip), vehicle: saline with Tween-80) 99 % of control; (dose: 120.0 mg/kg/injection, schedule: Q01DX005 (ip), vehicle: saline with Tween-80) 99 % of control; (dose: 240.0 mg/kg/injection, schedule: Q01DX005 (ip), vehicle: saline with Tween-80) 100 % of control.

For `CCOC(=O)C(Cc1ccc(O)c(C=O)c1)NC(C)=O` (stereo not drawn), the T/C by setting is: under setting [6], 96 % of control; under setting [7], 97 % of control; under setting [8], 98 % of control.

Turning to `Cc1c(NC(=O)Nc2c(Cl)cccc2Cl)c(=O)n(-c2ccccc2)n1C`, the T/C reads like this: (dose: 50.0 mg/kg/injection, schedule: Q01DX009 (ip), vehicle: Klucel (hydroxypropylcellulose) (HPC)) 102 % of control; (dose: 100.0 mg/kg/injection, schedule: Q01DX009 (ip), vehicle: Klucel (hydroxypropylcellulose) (HPC)) 106 % of control; (dose: 200.0 mg/kg/injection, schedule: Q01DX009 (ip), vehicle: Klucel (hydroxypropylcellulose) (HPC)) 97 % of control.

`COc1ccc2cc(-c3ccccc3)[s+]cc2c1`: the T/C runs as follows: (dose: 3.12 mg/kg/injection, schedule: Q01DX009 (ip), vehicle: DMSO) 91 % of control; (dose: 6.25 mg/kg/injection, schedule: Q01DX009 (ip), vehicle: DMSO) 86 % of control; (dose: 12.5 mg/kg/injection, schedule: Q01DX009 (ip), vehicle: DMSO) 89 % of control; (dose: 50.0 mg/kg/injection, schedule: Q01DX009 (ip), vehicle: DMSO) 99 % of control.

In the case of `O=C(Nc1cnns1)c1ccccc1`, the T/C by setting is: (dose: 12.5 mg/kg/injection, schedule: Q01DX009 (ip), vehicle: other) 105 % of control; (dose: 25.0 mg/kg/injection, schedule: Q01DX009 (ip), vehicle: other) 99 % of control; (dose: 50.0 mg/kg/injection, schedule: Q01DX009 (ip), vehicle: other) 102 % of control; (dose: 100.0 mg/kg/injection, schedule: Q01DX009 (ip), vehicle: other) 105 % of control; (dose: 200.0 mg/kg/injection, schedule: Q01DX009 (ip), vehicle: other) 89 % of control.

As for `Nc1nc(N)c2cn[nH]c2n1`, the T/C was 95 % of control (dose: 6.25 mg/kg/injection, schedule: Q01DX009 (ip), vehicle: saline); 93 % of control (dose: 12.5 mg/kg/injection, schedule: Q01DX009 (ip), vehicle: saline); 100 % of control (dose: 25.0 mg/kg/injection, schedule: Q01DX009 (ip), vehicle: saline); 104 % of control under setting [3].
